According to PubChem BioAssay (NCI):
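Compound exposure: 48 hours, 5 concentrations, 96-well plates. TGI marks complete inhibition of growth.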

Legend:
Assay in all cases: NCI-60 cell line screen, 48 h
786-0 renal = tested on: 786-0 renal
A498 renal = tested on: A498 renal
A549 NSCLC = tested on: A549 NSCLC
ACHN renal = tested on: ACHN renal
BT-549 breast = tested on: BT-549 breast
CAKI-1 renal = tested on: CAKI-1 renal
CCRF-CEM leukemia = tested on: CCRF-CEM leukemia
COLO 205 colon = tested on: COLO 205 colon
DU-145 prostate = tested on: DU-145 prostate
EKVX NSCLC = tested on: EKVX NSCLC
HCC-2998 colon = tested on: HCC-2998 colon
HCT-116 colon = tested on: HCT-116 colon
HCT-15 colon = tested on: HCT-15 colon
HL-60(TB) leukemia = tested on: HL-60(TB) leukemia
HOP-62 NSCLC = tested on: HOP-62 NSCLC
HOP-92 NSCLC = tested on: HOP-92 NSCLC
HS 578T breast = tested on: HS 578T breast
HT29 colon = tested on: HT29 colon
IGROV1 ovarian = tested on: IGROV1 ovarian
K-562 leukemia = tested on: K-562 leukemia
KM12 colon = tested on: KM12 colon
LOX IMVI melanoma = tested on: LOX IMVI melanoma
M14 melanoma = tested on: M14 melanoma
MALME-3M melanoma = tested on: MALME-3M melanoma
MCF7 breast = tested on: MCF7 breast
MDA-MB-231 breast = tested on: MDA-MB-231 breast
MDA-MB-435 = tested on: MDA-MB-435
MDA-N = tested on: MDA-N
MOLT-4 leukemia = tested on: MOLT-4 leukemia
NCI-H226 lung = tested on: NCI-H226 lung
NCI-H23 lung = tested on: NCI-H23 lung
NCI-H460 lung = tested on: NCI-H460 lung
NCI-H522 lung = tested on: NCI-H522 lung
NCI/ADR-RES ovarian = tested on: NCI/ADR-RES ovarian
OVCAR-3 ovarian = tested on: OVCAR-3 ovarian
OVCAR-4 ovarian = tested on: OVCAR-4 ovarian
OVCAR-5 ovarian = tested on: OVCAR-5 ovarian
OVCAR-8 ovarian = tested on: OVCAR-8 ovarian
PC-3 prostate = tested on: PC-3 prostate
RPMI-8226 leukemia = tested on: RPMI-8226 leukemia
RXF 393 renal = tested on: RXF 393 renal
SF-268 CNS = tested on: SF-268 CNS
SF-295 CNS = tested on: SF-295 CNS
SF-539 CNS = tested on: SF-539 CNS
SK-MEL-2 melanoma = tested on: SK-MEL-2 melanoma
SK-MEL-28 melanoma = tested on: SK-MEL-28 melanoma
SK-MEL-5 melanoma = tested on: SK-MEL-5 melanoma
SK-OV-3 ovarian = tested on: SK-OV-3 ovarian
SN12C renal = tested on: SN12C renal
SNB-19 CNS = tested on: SNB-19 CNS
SR leukemia = tested on: SR leukemia
SW-620 colon = tested on: SW-620 colon
T-47D breast = tested on: T-47D breast
TK-10 renal = tested on: TK-10 renal
U251 CNS = tested on: U251 CNS
UACC-257 melanoma = tested on: UACC-257 melanoma
UACC-62 melanoma = tested on: UACC-62 melanoma
UO-31 renal = tested on: UO-31 renal

With `C1CSC(Sc2nc(SC3=NCCS3)nc(SC3=NCCS3)n2)=N1` the TGI (786-0 renal) was over 100 µM, the TGI (A498 renal) was over 100 µM and the TGI (A549 NSCLC) was over 100 µM. For the same compound, the TGI (ACHN renal) was over 100 µM, the TGI (BT-549 breast) was over 100 µM and the TGI (CAKI-1 renal) was over 100 µM. It also gave a TGI (CCRF-CEM leukemia) of over 100 µM, a TGI (COLO 205 colon) of over 100 µM and a TGI (DU-145 prostate) of over 100 µM. For the same compound, the TGI (EKVX NSCLC) was over 100 µM, the TGI (HCC-2998 colon) was over 100 µM and the TGI (HCT-116 colon) was over 100 µM. The TGI (HCT-15 colon) was over 100 µM, the TGI (HL-60(TB) leukemia) was over 100 µM and the TGI (HOP-62 NSCLC) was over 100 µM. It also gave a TGI (HOP-92 NSCLC) of over 100 µM, a TGI (HS 578T breast) of over 100 µM and a TGI (HT29 colon) of over 100 µM. The TGI (IGROV1 ovarian) was over 100 µM, the TGI (K-562 leukemia) was over 100 µM and the TGI (KM12 colon) was over 100 µM. The TGI (LOX IMVI melanoma) was over 100 µM, the TGI (M14 melanoma) was over 100 µM and the TGI (MALME-3M melanoma) was over 100 µM. It also gave a TGI (MCF7 breast) of over 100 µM, a TGI (MDA-MB-231 breast) of over 100 µM and a TGI (MDA-MB-435) of over 100 µM. The TGI (MDA-N) was over 100 µM, the TGI (MOLT-4 leukemia) was over 100 µM and the TGI (NCI-H226 lung) was over 100 µM. The TGI (NCI-H23 lung) was over 100 µM, the TGI (NCI-H460 lung) was over 100 µM and the TGI (NCI-H522 lung) was over 100 µM. The TGI (NCI/ADR-RES ovarian) was over 100 µM, the TGI (OVCAR-3 ovarian) was over 100 µM and the TGI (OVCAR-4 ovarian) was over 100 µM. It also gave a TGI (OVCAR-5 ovarian) of over 100 µM, a TGI (OVCAR-8 ovarian) of over 100 µM and a TGI (PC-3 prostate) of over 100 µM. It also gave a TGI (RPMI-8226 leukemia) of over 100 µM, a TGI (RXF 393 renal) of over 100 µM and a TGI (SF-268 CNS) of over 100 µM. For the same compound, the TGI (SF-295 CNS) was over 100 µM, the TGI (SF-539 CNS) was over 100 µM and the TGI (SK-MEL-2 melanoma) was over 100 µM. For the same compound, the TGI (SK-MEL-28 melanoma) was over 100 µM, the TGI (SK-MEL-5 melanoma) was over 100 µM and the TGI (SK-OV-3 ovarian) was over 100 µM. For the same compound, the TGI (SN12C renal) was over 100 µM, the TGI (SNB-19 CNS) was over 100 µM and the TGI (SR leukemia) was over 100 µM. For the same compound, the TGI (SW-620 colon) was over 100 µM, the TGI (T-47D breast) was over 100 µM and the TGI (TK-10 renal) was over 100 µM. For the same compound, the TGI (U251 CNS) was over 100 µM, the TGI (UACC-257 melanoma) was over 100 µM and the TGI (UACC-62 melanoma) was over 100 µM. It also gave a TGI (UO-31 renal) of over 100 µM.

`CC(C)(C)c1ccc(C(C)(C)C)c(N2C(=O)[C@@H]3[C@@H]4C=C[C@@H](C4)[C@]3(C)C2=O)c1` gave a TGI (786-0 renal) of 40.2 µM, a TGI (A498 renal) of 69.8 µM and a TGI (A549 NSCLC) of over 100 µM. It also gave a TGI (ACHN renal) of over 100 µM, a TGI (BT-549 breast) of 57.7 µM and a TGI (CAKI-1 renal) of over 100 µM. For the same compound, the TGI (CCRF-CEM leukemia) was 32 µM, the TGI (COLO 205 colon) was over 100 µM and the TGI (DU-145 prostate) was 53.5 µM. It also gave a TGI (EKVX NSCLC) of over 100 µM, a TGI (HCC-2998 colon) of 29.1 µM and a TGI (HCT-116 colon) of 40.9 µM. The TGI (HCT-15 colon) was 42.9 µM, the TGI (HL-60(TB) leukemia) was 40.4 µM and the TGI (HOP-62 NSCLC) was over 100 µM. The TGI (HOP-92 NSCLC) was 9.64 µM, the TGI (HS 578T breast) was 59.9 µM and the TGI (HT29 colon) was over 100 µM. The TGI (IGROV1 ovarian) was 39.9 µM, the TGI (K-562 leukemia) was over 100 µM and the TGI (KM12 colon) was over 100 µM. It also gave a TGI (LOX IMVI melanoma) of 26.8 µM, a TGI (M14 melanoma) of 51.3 µM and a TGI (MALME-3M melanoma) of 53 µM. The TGI (MCF7 breast) was over 100 µM, the TGI (MDA-MB-231 breast) was over 100 µM and the TGI (MDA-MB-435) was 32.4 µM. For the same compound, the TGI (MDA-N) was 31.9 µM, the TGI (MOLT-4 leukemia) was 61 µM and the TGI (NCI-H226 lung) was over 100 µM. The TGI (NCI-H23 lung) was over 100 µM, the TGI (NCI-H460 lung) was over 100 µM and the TGI (NCI-H522 lung) was 47.4 µM. It also gave a TGI (NCI/ADR-RES ovarian) of over 100 µM, a TGI (OVCAR-3 ovarian) of 53 µM and a TGI (OVCAR-4 ovarian) of 26.7 µM. For the same compound, the TGI (OVCAR-5 ovarian) was over 100 µM, the TGI (OVCAR-8 ovarian) was 33.4 µM and the TGI (PC-3 prostate) was 72.6 µM. It also gave a TGI (RPMI-8226 leukemia) of 49.1 µM, a TGI (RXF 393 renal) of 32.2 µM and a TGI (SF-268 CNS) of 74 µM. For the same compound, the TGI (SF-295 CNS) was over 100 µM, the TGI (SF-539 CNS) was over 100 µM and the TGI (SK-MEL-2 melanoma) was 53.1 µM. The TGI (SK-MEL-28 melanoma) was over 100 µM, the TGI (SK-MEL-5 melanoma) was over 100 µM and the TGI (SK-OV-3 ovarian) was over 100 µM. It also gave a TGI (SN12C renal) of 52.3 µM, a TGI (SNB-19 CNS) of over 100 µM and a TGI (SR leukemia) of 39.9 µM. It also gave a TGI (SW-620 colon) of 62.6 µM, a TGI (T-47D breast) of 82.6 µM and a TGI (TK-10 renal) of over 100 µM. It also gave a TGI (U251 CNS) of 52.5 µM, a TGI (UACC-257 melanoma) of 74.4 µM and a TGI (UACC-62 melanoma) of 46.7 µM. For the same compound, the TGI (UO-31 renal) was over 100 µM.

For `CC(=O)NCCC1CNc2ccccc21` (configuration not stated), the TGI (A498 renal) was over 100 µM, the TGI (A549 NSCLC) was over 100 µM and the TGI (ACHN renal) was over 100 µM. The TGI (BT-549 breast) was over 100 µM, the TGI (CAKI-1 renal) was over 100 µM and the TGI (CCRF-CEM leukemia) was over 100 µM. It also gave a TGI (COLO 205 colon) of over 100 µM, a TGI (DU-145 prostate) of over 100 µM and a TGI (EKVX NSCLC) of over 100 µM. It also gave a TGI (HCC-2998 colon) of over 100 µM, a TGI (HCT-116 colon) of over 100 µM and a TGI (HCT-15 colon) of over 100 µM. It also gave a TGI (HL-60(TB) leukemia) of over 100 µM, a TGI (HOP-92 NSCLC) of over 100 µM and a TGI (HS 578T breast) of over 100 µM. For the same compound, the TGI (HT29 colon) was over 100 µM, the TGI (IGROV1 ovarian) was over 100 µM and the TGI (K-562 leukemia) was over 100 µM. The TGI (KM12 colon) was over 100 µM, the TGI (LOX IMVI melanoma) was over 100 µM and the TGI (M14 melanoma) was over 100 µM. The TGI (MALME-3M melanoma) was over 100 µM, the TGI (MCF7 breast) was over 100 µM and the TGI (MDA-MB-231 breast) was over 100 µM. For the same compound, the TGI (MDA-MB-435) was over 100 µM, the TGI (MDA-N) was over 100 µM and the TGI (MOLT-4 leukemia) was over 100 µM. The TGI (NCI-H226 lung) was over 100 µM, the TGI (NCI-H23 lung) was over 100 µM and the TGI (NCI-H460 lung) was over 100 µM. For the same compound, the TGI (NCI-H522 lung) was over 100 µM, the TGI (NCI/ADR-RES ovarian) was over 100 µM and the TGI (OVCAR-3 ovarian) was over 100 µM. The TGI (OVCAR-4 ovarian) was over 100 µM, the TGI (OVCAR-5 ovarian) was over 100 µM and the TGI (OVCAR-8 ovarian) was over 100 µM. The TGI (PC-3 prostate) was over 100 µM, the TGI (RPMI-8226 leukemia) was over 100 µM and the TGI (RXF 393 renal) was over 100 µM. The TGI (SF-268 CNS) was over 100 µM, the TGI (SF-295 CNS) was over 100 µM and the TGI (SF-539 CNS) was over 100 µM. The TGI (SK-MEL-2 melanoma) was over 100 µM, the TGI (SK-MEL-28 melanoma) was over 100 µM and the TGI (SK-MEL-5 melanoma) was over 100 µM. It also gave a TGI (SK-OV-3 ovarian) of over 100 µM, a TGI (SN12C renal) of over 100 µM and a TGI (SNB-19 CNS) of over 100 µM. It also gave a TGI (SR leukemia) of over 100 µM, a TGI (SW-620 colon) of over 100 µM and a TGI (T-47D breast) of over 100 µM. For the same compound, the TGI (TK-10 renal) was over 100 µM, the TGI (U251 CNS) was over 100 µM and the TGI (UACC-257 melanoma) was over 100 µM. The TGI (UACC-62 melanoma) was over 100 µM and the TGI (UO-31 renal) was over 100 µM.
